≈ marks a conversion by molar mass, not a printed value. Where two headings read alike, the source gives them in different places.
Assays:
[1] = Drug solubility in water; assay type: physicochemical; conditions: measured after 14 days, distilled water, 21° C.; for solubility at 14 days: thermodynamic from solid
Description: 1-mL aliquots were removed at fixed time intervals and analyzed by UV Spectroscopy to determine maximum saturation concentration.

[2] = In vitro drug release assay from 50:50 PLGA pellets, fit to equation (4); assay type: physicochemical; conditions: for k (degradation reaction rate): fit of FIG. 10 data to equation (4), 50:50 PLGA, 20% drug load; for Onset of drug release (induction time): 50:50 PLGA pellets, PBS 37° C.; for k, fit parameter: FIG. 11 legend
Protocol: 400 mg of 50:50 PLGA and 100 mg of drug were solvent cast to obtain a 20% by mass drug-load. Polymer and drug were dissolved in 45 milliliters (mL) acetone (Fisher Scientific, Inc.) and vortexed, then poured into an evaporation dish and placed in a vacuum oven at 40° C. under vacuum (3 inches Hg) with trace airflow. After seven days, dishes were removed from the oven. Evaporation residue was a thin film mixture of polymer and drug with homogenous appearance. The film was carefully weighed to confirm complete removal of solvent and pressed into four uniform disk-shaped pellets with 1 mm thickness and […], using a Teflon®-coated pellet press set at 25 (kilo-pounds) klb and 60° C. Pellets were carefully weighed and measured to determine densities. Negative control pellets with a 0% drug load were fabricated in the same manner, using 500 mg polymer and no drug.
Assays were performed in triplicate using three of each set of four uniform pellets. Each pellet was added to an amber-glass, capped jar (Wheaton, Inc.) containing 500 mL of a PBS solution and subjected to moderate shaking in the dark, at 37° C. 1-mL aliquots of were analyzed by UV Spectroscopy at fixed time intervals and. Positive control jars contained PBS and 10 mg of drug, the expected maximum release for a 20% drug-loaded pellet with a mass of 50 mg, and were also used to determine stability of each drug in saline solution over the course of the experiment.
The degradation reaction is likely to be a […] reaction between the polymer and water, and is thus proportional to the local concentration of both species. However, since the polymer comprises the majority of the pellet, its concentration is fixed everywhere. Thus, the degradation reaction is proportional to the local concentration of water (a function of the diffusivity) times a constant. Defining the diffusion coefficient of water into the polymer pellet as D, the diffusion/reaction equation for water is written as (1): […]
The model described by Equation (4) fit well the drug release data shown in FIG. 10 for all six drugs tested, with values of D and k as listed in Table 2 (the curves for haloperidol and aspirin are depicted in FIG. 11). This is notable because the drugs tested are diverse; e.g. haloperidol and aspirin are very different. The deviations seen at late time points arose from the finite size of the pellets.

[3] = in vivo; conditions: rabbit
Description: The concentration of drug as a function of time is a complex function. The error function can be approximated as erf(x)˜1−e^−7x/4, yielding equation 10 for the drug concentration. a1 is a constant equal to the total drug content of the implant, variable a2 is a constant equal to the metabolic rate, variable a3 reflects diffusion of drug from the implant and variable a4 reflects polymer degradation and influences total release interval.

[4] = first 77 days
[5] = assay type: physicochemical
Protocol: To evaluate the long-term stability of risperidone in physiological solution, 10 mg Risperidone was dissolved in 100 μl of acetonitrile for subsequent dissolution in 1,000 ml of PBS (0.9% NaCl, 0.01 M NaOH, 0.01 M NaH2PO4, pH 7.0) to yield a final solution of 10,000 nanograms (ng)/ml. The solution was shaken at 40 revolutions per minute in a light-safe amber bottle at 37° C. Drug concentration of a 1-ml sample was measured three times per week by UV spectroscopy (Amersham Biosciences, Buckinghamshire, UK). […] Studies were replicated using UV spectrophotometry and HPLC (FIG. 5).

CC(=O)Oc1ccccc1C(=O)O [Aspirin, 2-acetyloxybenzoic acid]
Water solubility [1]: 4990 µg/mL
k (degradation reaction rate) [2]: 0.06 day⁻¹

CC12CCC(=O)C=C1CCC1C2C(O)CC2(C)C(C(=O)CO)CCC12 (stereo not drawn) [Corticosterone, 11-hydroxy-17-(2-hydroxyacetyl)-10,13-dimethyl-1,2,6,7,8,9,10,11,12,13,14,15,16,17-tetradecahydrocyclopenta[a]phenanthren-3-one]
solubility at 14 days [1]: 500 µg/mL (≈ 1440 µM)
k (degradation reaction rate) [2]: 0.33 day⁻¹

NS(=O)(=O)c1cc2c(cc1Cl)NCNS2(=O)=O [HCTZ, 9-chloro-5,5-dioxo-5λ6-thia-2,4-diazabicyclo[4.4.0]deca-6,8,10-triene-8-sulfonamide]
k (degradation reaction rate) [2]: 0.26 day⁻¹

O=C(CCCN1CCC(O)(c2ccc(Cl)cc2)CC1)c1ccc(F)cc1 [Haloperidol, 4-[4-(4-chlorophenyl)-4-hydroxy-1-piperidyl]-1-(4-fluorophenyl)-butan-1-one]
solubility at 14 days [1]: 130 µg/mL (≈ 346 µM)
Coefficient τ [3]: ≈ 0.027
half-life [3]: ~2.17 h
Onset of drug release (induction time) [2]: exhibited an induction time
k, fit parameter [2]: approximately 0.1 1/days
k (degradation reaction rate) [2]: 0.07 day⁻¹

CC(C)Cc1ccc(C(C)C(=O)O)cc1 (stereo not drawn) [Ibuprofen, 2-[4-(2-methylpropyl)phenyl]propanoic acid]
solubility at 14 days [1]: 470 µg/mL (≈ 2280 µM)
k, fit parameter [2]: approximately 0.164 1/days
k (degradation reaction rate) [2]: 0.16 day⁻¹

Cc1nc2n(c(=O)c1CCN1CCC(c3noc4cc(F)ccc34)CC1)CCCC2 [Risperidone]
Daily change in drug mass ([4]; pH 4.4): 0.00%
Daily change in drug mass ([4]; pH 5.4): 0.10%
Daily change in drug mass ([4]; pH 6.4): 0.04%
Daily change in drug mass ([4]; pH 7.4): 0.06%
Stability in physiological solution [5]: stable
Change in concentration of drug per day ([5]; PBS pH 7.0, 37° C.): 0.004 % per day
Change in concentration of drug ([5]; over 343 days, PBS pH 7.0, 37° C., UV spectroscopy): 1.4%

CN1CCN(CCC=C2c3ccccc3Sc3ccc(S(=O)(=O)N(C)C)cc32)CC1 [Thiothixene, N,N-dimethyl-9-[3-(4-methylpiperazin-1-yl)propylidene]thioxanthene-2-sulfonamid]
solubility at 14 days [1]: 140 µg/mL (≈ 316 µM)
Onset of drug release (induction time) [2]: released as soon as the experiment begins
k (degradation reaction rate) [2]: 0.06 day⁻¹
